Marks after values point to notes of the source that are not given here.
Assays:
M. incognita = experiment: Greenhouse trial: root galls on cucumber in treated soil; type: in vivo, Meloidogyne incognita; settings: for reduction of galls per gram of root compared with the Tween control: 0.1%, Trials 1 & 2
Source text: Two weeks after transplant, the plants were harvested.
(§1) The assumptions of the model were checked.
The number of carbons is indicated in parentheses.

[1] = test system: H. glycines second-stage juveniles; experiment: Microwell assay: previously hatched J2 immersed in compounds, activity and viability; settings: for viability reduction compared with the Tween control: following the water rinse (Day 3); for inactive J2: Day 1 and Day 2; for reduction in % viable J2 compared with the Tween control: Day 3 following water rinse
Method: The isolate of H. glycines race 3, originally isolated in Maryland, was maintained on soybean (Glycine max cv. ‘Essex’). As previously described (Wen, Y., et al. Plant Disease, 103: 2191-2198 (2019)), the roots were gently rubbed in water to dislodge cysts and mature females. The egg suspensions were then poured through nested sieves (#20 over /#60; pore sizes 850 μm and 250 μm diam., respectively) into a 454 g/liter sucrose solution. After 15 min, the cysts and females and cysts that floated to the top were collected, rinsed in water, and crushed with a rubber stopper on a #60 sieve (250-μm diam. pore size) that was partially submerged in distilled water. The egg suspension was washed through nested #230 over #500 sieves (pore sizes 63 μm and 25-μm diam., respectively). The eggs were collected in distilled water, and J2 hatched as described above.
Compounds for the studies were purchased from three different companies: methyl benzoate, CAS Number 93-58-3, ≥99% purity; Tween 20, CAS Number: 9005-64-5; Tween 80, CAS Number: 9005-65-6; ethyl benzoate, CAS Number: 93-89-0, natural, ≥99% purity, FCC, FG; vinyl benzoate, CAS Number: 769-78-8, ≥99% purity; n-propyl benzoate, CAS Number: 2315-68-6, 99% purity; n-butyl benzoate, CAS Number: 136-60-7, 99% purity; benzyl benzoate, CAS Number: 120-51-4, natural, ≥99% purity, FCC, FG; methyl 2-methylbenzoate, CAS Number: 89-71-4, 99% purity; methyl 2-chlorobenzoate, CAS Number: 610-96-8, ≥98% purity; methyl 2-methoxybenzoate, CAS Number: 606-45-1, 99% purity and methyl 2-nitrobenzoate, CAS Number: 606-27-9, 98% purity were purchased from Sigma-Aldrich (St. Louis, Mo.). Compounds, iso-butyl benzoate, CAS Number 120-50-3, >98% purity; n-pentyl benzoate, CAS Number: 2049-96-9, ≥98% purity; and n-hexyl benzoate, CAS Number: 6789-88-4, ≥98% purity were purchased from Alfa Aesar (Tewksbury, Mass.). The compounds methyl 3-methoxybenzoate (methyl m-anisate), CAS Number: 5368-81-0; 97% and methyl 3-methylbenzoate (methyl m-toluate), CAS Number: 99-36-5, 97% purity were purchased from TCI America (Portland, Oreg.). All chemicals were used without further purification. Deionized water (DI) containing 1% emulsifier (v/v), Tween 20 and Tween 80, at 1:1 ratio was used to make different VOCs (volatile organic compounds) water solutions and also used as blank control.
For tests with individual compounds, the concentration of each compound was 0.1% before placement into wells; the final concentration in the wells was 0.095% after addition to eggs or J2 suspended in water. These are reported as 0.1% herein. An exception was Trial 2, M. incognita J2 activity and viability (Table 2): the final concentration was 0.1% after placement in wells. Low concentrations were selected for assays of combined compounds to determine if the combinations would increase nematotoxicity.
Laboratory assays were conducted in 96-well polystyrene plates following general procedures described in Wen et al. (2019). Each well received approximately 35 J2 (for previously hatched J2 assays) or 35 eggs that each contained either a first-stage juvenile (J1) or a J2. The plates were covered with plastic adhesive sealing film (Excel Scientific, Inc., Victorville Calif.) and then with the plate lids. Parafilm (Bemis, Neenah, Wis.) was used to seal the plates. The nematodes were then incubated at 26° C. […] Following the counts on Day 2, the treatments were removed and the J2 rinsed twice with SDW and incubated in the second rinse. […] Two trials were conducted for each assay.
Statistical analyses: The data were analyzed as either a general linear model using JMP or a generalized linear model for the best distribution to fit the residual using Proc Glimmix (Sas Institute). The assumptions of the model were checked. If not met, then appropriate statistical techniques were used so that data could met the assumptions of the models. In Sas, mean comparisons were done with Sidak adjusted p-values to hold the experiment-wise error at 0.05.

M. incognita eggs = experiment: Microwell assay: eggs immersed in compounds, hatch and activity of hatched J2; type: in vivo, Meloidogyne incognita; settings: 0.1%; for % Active Day 2 / % Active Day 5 / % Active Day 7: J2 hatched from immersed eggs; for Hatch Day 2 / Hatch Day 5 / Hatch Day 7: hatched J2 per well, about 35 eggs per well
Method: All chemicals were used without further purification.
These are reported as 0.1% herein.
The nematodes were then incubated at 26° C. […] Two trials were conducted for each assay.
as §1

[2] = 0.1%, previously hatched J2 in aqueous solution
[3] = Heterodera glycines, 72 h, read-out: % Viable Day 3 rinsed

Row | Compound | Galls per gram root Trials 1 & 2 (M. incognita; 0.05%, 5,000 eggs per pot) | Galls per gram root Trials 1 & 2 (M. incognita; 0.1%, 5,000 eggs per pot) | reduction of galls per gram of root compared with the Tween control (M. incognita) [%] | % Active Day 1 [1, 2] | % Active Day 2 [1, 2] | viability at 0.1 % [1, 3] [%] | % Active Day 2 (M. incognita eggs) | % Active Day 5 (M. incognita eggs) | % Active Day 7 (M. incognita eggs) | Hatch Day 2 (M. incognita eggs) | Hatch Day 5 (M. incognita eggs) | Hatch Day 7 (M. incognita eggs) | inactive J2 ([1]; 0.1%) [%] | reduction in % viable J2 compared with the Tween control ([1]; 0.1%) [%] | other results
1 | CCOC(=O)c1ccccc1 [EB, Ethyl benzoate] | 22.6 ^bcd | 34.2 ^abc | 53 | 2.7 ^e % | 1.8 ^g % | 4.4 | 0 ^c % | 0 ^e % | 0 ^c % | 2.4 ^cd | 3.9 ^cde | 4.3 ^de |  |  | % Active Day 1 ([1]; 0.025% final concentration): 73.9 ^a %; viability at 0.025 % [1, 3]: 52.8%
2 | COC(=O)c1cccc(C)c1 [M3MB, Methyl 3-methylbenzoate] | 11.2 ^bcdef | 6.8 ^defg |  | 10.1 ^d % | 7.6 ^g % | 8.5 | 0 ^c % | 0 ^e % | 0 ^c % | 1.9 ^cd | 2.7 ^cde | 2.9 ^de |  |  | % Active Day 1 ([1]; 0.015% final concentration): 71.9 ^a %; viability at 0.015 % [1, 3]: 58.7%
3 | COC(=O)c1ccccc1 [MB, Methyl benzoate] | 16.6 ^bcde | 7.4 ^defg |  | 0 ^e % | 0 ^h % | 0 | 0 ^c % | 0 ^e % | 0 ^c % | 2.2 ^cd | 3.8 ^cde | 4.7 ^de | 100 | 100 | % Active Day 1 ([1]; 0.0095% final concentration): 49.7 ^bc %; % Active Day 2 ([1]; 0.0095% final concentration): 27.9 ^bc %; viability reduction compared with the Tween control ([1]; 0.0095%): 32%; viability at 0.0095 % [1, 3]: 43.8%
4 | C=COC(=O)c1ccccc1 [VB, Vinyl benzoate] | 1.8 ^gh | 0.1 ^h | ~100 | 0 ^e % | 0 ^h % | 0 | 0 ^c % | 0 ^e % | 0 ^c % | 2.7 ^cd | 2.9 ^cde | 2.8 ^de | 100 | 100 | % Active Day 1 ([1]; 0.008% final concentration): 42.8 ^bc %; % Active Day 2 ([1]; 0.008% final concentration): 34.7 ^b %; viability reduction compared with the Tween control ([1]; 0.008%): 30%; viability at 0.008 % [1, 3]: 45%

Source: US20220183287A1, “METHODS FOR KILLING PESTS” (The United States of America, as represented by the …, priority 2020, published 2022)
